The text below walks through data of paper PMC8910697, “Development of VPC-70619, a Small-Molecule N-Myc Inhibitor as a Potential Therapy for Neuroendocrine Prostate Cancer” (International Journal of Molecular Sciences, 2022).

The structures appear in SMILES notation. Entries after “also recorded” stand apart in the source; their conditions may differ. Like-named read-outs stand apart in the source and are kept apart here.

The subject of one data set is NCI-H660 cells. The experiment in a line: Cell viability (CellTiter-Glo), NCI-H660. Type of data set: cell-based. As to the method:
Viability of N-Myc positive (IMR32and NCI-H660) and negative (HO15.19) cells were determined using the CellTiter-Glo Luminescent Cell Viability Assay (Promega cat. G7570) (Madison, WI, USA). Cells were seeded into a 96-well white plate with a clear bottom: 10,000 cells per well for the IMR32 cells cultured in EMEM supplemented with 10% FBS, 2000 HO15.19 cells per well in Eagle’s minimum essential medium (EMEM) supplemented with 10% FBS, and 2000 cells per well for the NCI-H660 neuroendocrine cells cultured in RPMI supplemented 5% FBS, 1% Insulin-Transferrin-Selenium (Thermo Fisher, 41400-045), 10nM b-estradiol (Sigma, E8875), 10nM hydrocortisone (Sigma H0888) and 1% matrigel. Following 24 h incubation, the cells were treated with serial dilutions of the derivatives along with the respective parental compound starting at 25 μM for 72 h. Cell Titer Glo was added to each well at a ratio of 1:1 and incubated on a shaker at RT for 2 min. Luminescence and IC50 was measured with the TECAN InfiniteM200 plate reader (Männedorf, Switzerland).
Background: Cellular ATP, detected with luciferase, serves as a proxy for viable cell number.

A short description of data set [1]: Pharmacokinetics after IP and PO dosing. Type of data set: in vivo, male Balb/c mice. To be noted: 10 mg/kg; for half-life / Cmax: male, Balb/c, mouse, plasma; for Cmax: 70551 in 75:25 PG/PEG 400, 70619 in 20:80 Kolliphor EL. As to the method: In order to characterize VPC-70619 as a drug candidate against N-myc, its pharmacokinetic (PK) characteristics were evaluated in Balb/c mice following intraperitoneal (IP) and peroral (PO) administrations. As presented in Figure 5, we determined the PK properties of VPC-70619 and compared it to the parental molecule, VPC-70551. […] The clearance of 70551 for PO delivery was extremely slow, and we could not determine the T1/2 in the experimental conditions used for this assay. […] Therefore, VPC-70619 was deemed to have appropriate efficacy in vivo, and a better pharmacokinetic profile due to higher bioavailability for both oral and intraperitoneal administration.
Bienta Enamine Biology Services (Kyiv, Ukraine) conducted PK studies according to the Enamine PK study protocols and Institutional Animal Care and Use Guidelines. The PK studies were reviewed and approved by the Bienta Animal Care and Use Committee (BACUC) under the project identification codes PK-VPC-112618 (approved 17 December 2018) and PK-VPC-101119 (approved 21 October 2019), for VPC-70551 and […], respectively. Evaluation of 70619 and 70551 was conducted in male Balb/c mice through intraperitoneal (IP) and peroral (PO) administration. Measurements were taken at six time points: 5, 15, 60, 120, 240, and 360 min for IP; 15, 30, 60, 120, 240, and 480 min for PO. Four mice were included in each treatment group for each time point; one mouse each for IP and PO was included as a control. Initial target administration for both IP and PO was 10 mg/kg dose level, 2 mg/mL dose concentration, and 5 mL/kg dose volume. Concentration of the compounds was evaluated in the plasma samples using an LC-MS/MS system.

A short description of data set [2]: Microsomal stability assay. It is filed as in vitro ADME, Mouse. As to the method:
A microsomal stability assay was performed using the Corning Gentest NADPH Regenerating System (Corning, #451220/41200) (Corning, NY, USA). Mouse liver microsomes (MLM) (Xenotech, M1000) (Kansas City, KS, USA) and compounds were diluted to a final concentration of 0.15 mg/mL and 1 μM respectively. These were prepared into a 500 μL solution with 100 mM potassium phosphate buffer (pH = 7.4). Imipramine was used as a control. NADPH solutions A and B were mixed in a 5:1 ratio, and 24 μL of the NADPH was added to each of the MLM/compound samples at 30 s intervals. At time points 10, 20, and 45 min, 100 μL of reaction was added to the stopping solution. Samples were centrifuged at 18,000× g and incubated at 4 °C for 10 min. Samples were then loaded onto a LC-MS 96-well plate for analysis.

The next data set concerns HO15.19 cells. Briefly: Cell viability counter-screen (CellTiter-Glo), Myc-negative HO15.19. Type of data set: cell-based. In outline:
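IMR32 cells (10,000/well) and HO15.19 cells (2000/well), both in EMEM with 10% FBS, were seeded 24 h before 72 h exposure to serial compound dilutions starting at 25 μM. Viability was read by CellTiter-Glo luminescence to give IC50. Single-point testing used 10 µM.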
A general note: The purpose of a counterscreen is to sort out artefacts and off-target activity.

In the next data set the target is T1, N-Myc-Max heterodimer (Homo sapiens, UniProt P04198+P61244).
T1 construct: expressed in transfected cells; host or cells: LNCaP-NMYC cells (gift from David Rickman)
T1 sequence (P04198 whole entry): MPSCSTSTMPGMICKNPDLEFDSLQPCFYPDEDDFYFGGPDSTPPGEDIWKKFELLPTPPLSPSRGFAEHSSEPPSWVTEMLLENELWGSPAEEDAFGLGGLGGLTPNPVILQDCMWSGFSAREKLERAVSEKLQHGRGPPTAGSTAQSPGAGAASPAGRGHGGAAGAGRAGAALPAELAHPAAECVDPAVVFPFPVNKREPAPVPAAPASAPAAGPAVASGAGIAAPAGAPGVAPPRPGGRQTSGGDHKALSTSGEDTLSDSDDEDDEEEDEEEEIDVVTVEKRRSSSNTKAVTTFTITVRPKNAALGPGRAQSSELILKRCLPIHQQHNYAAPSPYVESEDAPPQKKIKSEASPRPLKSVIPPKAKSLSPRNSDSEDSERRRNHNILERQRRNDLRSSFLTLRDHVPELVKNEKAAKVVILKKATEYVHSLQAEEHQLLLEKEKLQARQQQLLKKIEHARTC
T1 sequence (P61244 whole entry): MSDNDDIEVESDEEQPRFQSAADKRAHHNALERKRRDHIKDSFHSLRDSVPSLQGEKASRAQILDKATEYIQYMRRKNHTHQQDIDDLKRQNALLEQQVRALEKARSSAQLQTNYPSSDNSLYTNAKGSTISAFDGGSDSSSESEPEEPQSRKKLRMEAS
Briefly: Proximity ligation assay (PLA) in LNCaP-NMYC cells. It is filed as cell-based. To be noted: 10 µM, 72 h. As to the method:
To confirm that 70619 could disrupt the binding of N-Myc-Max DBD to DNA, we performed a bio-layer interferometry (BLI) assay where we immobilized biotinylated E-box sequence on streptavidin sensors, and we evaluated recombinant N-Myc-Max binding to the DNA in the presence of increasing concentrations of VPC-70619. […] We observed a similar number of interactions when comparing the ratio of signal per nuclei in the presence or absence of the compound.
LNCaP-NMYC cells were seeded on coverslips at a density of 10^5 cells per well of a 6-well plate. After incubation for 24 h the cells were treated with 10 μM of either 10074-G5 or 70619 for 72 h. The coverslips were fixed with methanol:acetone (3:1) and incubated with primary antibodies n-Myc Antibody (NMYC-1) (Novus Biologicals NB200-109) (Littleton, CO, USA) and MAX Antibody (C-17) (Santa Cruz sc-197) (Dallas, TX, USA) overnight at 4 °C. PLA was conducted using the Duolink In Situ Detection Reagents Red kit (Sigma DUO92008) according to the manufacturer’s protocol. The coverslips were then mounted on slides with VECTASHIELD mounting media with DAPI, and images were taken on ZEISS 780 confocal microscope at 40× magnification.

In general, Cmax refers to the highest concentration seen after dosing. The inhibition is the relative decrease from the control value, in per cent. Read a high inhibition as a strong effect.

As for `N#Cc1ccc(NNC(=O)c2ccc(C#N)c(Cl)c2)c(C(F)(F)F)c1` [compound 70619], the IC50 in the data set on NCI-H660 cells (NCI-H660, 72 h, read-out: IC50 cell proliferation in NCI-H660) is 7 µM. Further, the “inhibition of NCI-H660 (in words)” value in the data set on NCI-H660 cells (NEPC in vitro model) is on record as “good inhibition”. The half-life in data set [1] (ip, read-out: plasma half-life (T1/2) IP) stood at 5.5 h; in data set [1] (po, read-out: plasma half-life (T1/2) PO), 7.12 h. Further, the highest concentration (Cmax) came out at 29500 ng/mL in data set [1] (IP, read-out: Cmax IP) and 24000 ng/mL in data set [1] (PO, read-out: Cmax PO). In addition, in data set [1] (single dose IP or PO), the “adverse effects / signs of toxicity in PK animals” value is on record as “No signs of toxicity”. In addition, in data set [2] (half-life 2310 min vs 140 min), the “increase in microsomal stability compared to VPC-70551” value stood at 15 fold. Further, in data set [2] (mouse, mouse liver microsomes, pH 7.4, mouse liver microsomes, 1 µM compound, read-out: microsomal half-life (T1/2)), the half-life at 1 μM is 38.5 h. In addition, the “% Inhibition in HO15.19 (10 µM)” value in the data set with HO15.19 cells (10 µM, Myc-negative specificity control) was 14.1%. Further, in the data set on HO15.19 cells (Rattus norvegicus, HO15.19, 10 µM, Myc-negative specificity control), the inhibition at 10 µM worked out at 14%. Further, the “cytotoxicity in Myc-negative HO15.19 (in words)” value with HO15.19 cells (counter-screen) is reported as “did not report any strong inhibitory effects; also recorded: minimal cytotoxicity”. In addition, the “effect on N-Myc-Max heterodimer interactions (in words)” value was “does not disrupt Myc-Max complexes” on N-Myc-Max heterodimer and “does not disrupt the N-Myc-Max heterodimer formation” at N-Myc-Max heterodimer (listed as VPC-70619).
